Laboratory results published in patent US20020077345A1, “Cis-substituted aminocycloalkylpyrrolidine derivatives” (priority 1997, published 2002).
≈ marks a conversion by molar mass, not a printed value. Structures can show the parent of a compound that is named as a salt. Where two headings read alike, the source gives them in different places. Marks after values point to notes of the source that are not given here.

Key:
[1] = tested on: Slc:ddy male mice; assay: Acute toxicity, intravenous administration to mice; type: in vivo; settings: deaths/mice dosed
Method: A solution of 5-amino-7-[4-(R)-(1-aminocyclopropyl)-3-(S)-fluoro-1-pyrrolidinyl]-6-fluoro-1-[2-(S)-fluoro-1-(R)-cyclopropyl]-1,4-dihydro-8-methyl-4-oxoquinoline-3-carboxylic acid (abbreviated as cis) hydrochloride (Example 2) or 5-amino-7-[4-(R)-(1-aminocyclopropyl)-3-(R)-fluoro-1-pyrrolidinyl]-6-fluoro-1-(2-(S)-fluoro-1-(R)-cyclopropyl]-1,4-dihydro-8-methyl-4-oxoquinoline-3-carboxylic acid (abbreviated as trans) hydrochloride in distilled water for injection was administered intravenously to Slc:ddy male mice (five mice per group) and the symptoms are observed. The results are as follows.

[2] = tested on: E. coli, NIHJ; assay: Antimicrobial activity (MIC), standard method of Japan Society of Chemotherapy; type: cell-based
Method: (§1) To further illustrate the present invention in greater detail, and not by way of limitation, the following Examples will be given. The antimicrobial activity of each target compound was evaluated in accordance with the standard method specified by Japan Society of Chemotherapy and expressed in MIC (μg/ml).

[3] = tested on: S. flexneli, 2A 5503; assay: as above; type: cell-based
Method: as §1

[4] = tested on: S. aureus, 870307; assay: as above; type: cell-based
Method: as §1

[5] = tested on: Str. faecalis, ATCC-19433; assay: as above; type: cell-based
Method: as §1

[6] = tested on: Pr. mirabilis, IFO-3849; assay: as above; type: cell-based
Method: as §1

[7] = tested on: X. maltophilia, 11D-1275; assay: as above; type: cell-based
Method: as §1

[8] = tested on: S. epidermidis, 56500; assay: as above; type: cell-based
Method: as §1

[9] = tested on: Pr. vulgaris, 08601; assay: as above; type: cell-based
Method: as §1

[10] = tested on: Ser. marcescens, 10100; assay: as above; type: cell-based
Method: as §1

[11] = tested on: Ps. aeruginosa, 32104; assay: as above; type: cell-based
Method: as §1

[12] = tested on: Ps. aeruginosa, 32121; assay: as above; type: cell-based
Method: as §1

[13] = tested on: S. aureus, 209P; assay: as above; type: cell-based
Method: as §1

[14] = tested on: Str. pyogenes, G-36; assay: as above; type: cell-based
Method: as §1

[15] = 150 mg/kg intravenously, five per group
[16] = Escherichia coli, read-out: MIC
[17] = Staphylococcus aureus, read-out: MIC
[18] = Enterococcus faecalis, ATCC19433, read-out: MIC
[19] = Proteus mirabilis, IFO3849, read-out: MIC
[20] = Stenotrophomonas maltophilia, 11D1275, read-out: MIC
[21] = Staphylococcus epidermidis, read-out: MIC
[22] = Proteus vulgaris, read-out: MIC
[23] = Serratia marcescens, read-out: MIC
[24] = Pseudomonas aeruginosa, read-out: MIC
[25] = Streptococcus pyogenes, G36, read-out: MIC

SMILES	Number of death [1, 15]	MIC [2, 16] [µg/mL]	MIC [3] [µg/mL]	MIC [4, 17] [µg/mL]	MIC [5, 18] [µg/mL]	MIC [6, 19] [µg/mL]	MIC [7, 20] [µg/mL]	MIC [8, 21] [µg/mL]	MIC [9, 22] [µg/mL]	MIC [10, 23] [µg/mL]	MIC [11, 24] [µg/mL]	MIC [12, 24] [µg/mL]	MIC [13, 17] [µg/mL]	MIC [14, 25] [µg/mL]	also measured
Cc1c(N2CC(F)[C@@H](C3(N)CCC3)C2)c(F)c(N)c2c(=O)c(C(=O)O)cn(C3CC3F)c12 (single isomer, unassigned; isomer b) [Example 9]	same result														
Cc1c(N2CC(CO)C(C3(N)CC3)C2)c(F)c(N)c2c(=O)c(C(=O)O)cn(C3CC3)c12 (stereo not drawn) [Example 1, 5-Amino-7-[cis-4-(1-aminocycloproiyl)-3-hydroxymethyl-1-pyrrolidinyl]-1-cyclopropyl-6-fluoro-1,4-dihydro-8-methyl-4-oxoquinoline-3-carboxylic acid]	same result														
Cc1c(N2C[C@@H](F)[C@@H](C3(N)CC3)C2)c(F)c(N)c2c(=O)c(C(=O)O)cn([C@@H]3C[C@@H]3F)c12 [Example 2, 5-Amino-7-[4-(R)-(1-aminocyclopropyl)-3-(S)-fluoro-1-pyrrolidinyl]-6-fluoro-1-[2-(S)-fluoro-1-(R)-cyclopropyl1-1,4-dihydro-8-methyl-4-oxoquinoline-3-carboxylic acid hydrochloride]	0/5	≤ 0.003	≤ 0.003	0.025	0.025	0.025	0.05	≤ 0.003	0.013	0.05	0.1	0.05	≤ 0.003	≤ 0.003	
COc1c(N2C[C@@H](F)[C@@H](C3(N)CC3)C2)c(F)c(N)c2c(=O)c(C(=O)O)cn([C@@H]3C[C@@H]3F)c12 [Example 3]	same result	0.006 (≈ 0.0133 µM)	0.006 (≈ 0.0133 µM)	0.025 (≈ 0.0553 µM)	0.05 (≈ 0.111 µM)	0.1 (≈ 0.221 µM)	0.2 (≈ 0.442 µM)	0.006 (≈ 0.0133 µM)	0.05 (≈ 0.111 µM)	0.2 (≈ 0.442 µM)	0.39 (≈ 0.862 µM)	0.2 (≈ 0.442 µM)	≤ 0.003	0.013 (≈ 0.0287 µM)	
C[C@H]1COc2c(N3C[C@@H](F)[C@@H](C4(N)CC4)C3)c(F)cc3c(=O)c(C(=O)O)cn1c23 [Example 4, 10-[4-(R)-(1-Aminocyclopropyl)-3-(S)-fluoro-1-pyrrolidinyl]-9-fluoro-2,3-dihydro-3-(S)-methyl-7-oxo-7H-pyrido[1,2,3-de][1,4]benzoxazine-6-carboxylic acid]	same result														
COc1c(N2C[C@@H](F)[C@@H](C3(N)CC3)C2)c(F)cc2c(=O)c(C(=O)O)cn([C@@H]3C[C@@H]3F)c12 [Example 5, 7-[4-(R)-(1-Aminocyclopropyl)-3-(S)-fluoro-1-pyrrolidinyl]-6-fluoro-1-[2-(S)-fluoro-1-(R)-cycloproyyl]-1,4-dihydro-8-methoxy-4-oxoquinoline-3-carboxylic acid]	same result														MIC [2]: ≦0.003 μg/ml; MIC ([3]; S. flexneli, 2A 5503): 0.006 µg/mL (≈ 0.0137 µM); MIC [4]: 0.025 µg/mL (≈ 0.0572 µM); MIC [5]: 0.025 µg/mL (≈ 0.0572 µM); MIC [6]: 0.05 µg/mL (≈ 0.114 µM); MIC [7]: 0.20 µg/mL (≈ 0.457 µM); MIC [8]: 0.013 µg/mL (≈ 0.0297 µM); MIC [9]: 0.006 µg/mL (≈ 0.0137 µM); MIC [10]: 0.10 µg/mL (≈ 0.229 µM); MIC [11]: 0.20 µg/mL (≈ 0.457 µM); MIC [12]: 0.10 µg/mL (≈ 0.229 µM); MIC [13]: ≦0.003 μg/ml; MIC [14]: 0.006 µg/mL (≈ 0.0137 µM)
C[C@H]1COc2c(N3C[C@@H](F)[C@@H](C4(N)CC4)C3)c(F)cc3c(=O)c(C(=O)O)cn1c23.Cl [Example 6, 10-[4-(R)-(1-Aminocyclopropyl)-3-(S)-fluoro-1-pyrrolidinyl]-9-fluoro-2,3-dihydro-3-(S)-methyl-7-oxo-7H-pyrido[1,2,3-de][1,4]benzoxazine-6-carboxylic acid hydrochloride]		0.01	0.01	0.2	0.05	0.1	0.39	0.025	0.025	0.1	0.39	0.1	0.006	0.01	
C[C@H]1COc2c(N3C[C@@H](F)[C@@H](C4(N)CC4)C3)c(F)c(N)c3c(=O)c(C(=O)O)cn1c23 [Example 8, 8-Amino-10-[4-(R)-(1-aminocyclopropyl)-3-(S)-fluoro-1-pyrrolidinyl]-9-fluoro-2,3-dihydro-3-(S)-methyl-7-oxo-7H-pyrido[1,2,3-de][1,4]benzoxazine-6-carboxylic acid]	same result	0.006 (≈ 0.0143 µM)	0.013 (≈ 0.0309 µM)	0.2 (≈ 0.476 µM)	0.05 (≈ 0.119 µM)	0.1 (≈ 0.238 µM)	0.39 (≈ 0.928 µM)	0.013 (≈ 0.0309 µM)	0.1 (≈ 0.238 µM)	0.2 (≈ 0.476 µM)	0.39 (≈ 0.928 µM)	0.2 (≈ 0.476 µM)	0.006 (≈ 0.0143 µM)	0.025 (≈ 0.0595 µM)	
Cc1c(N2C[C@H](F)[C@@H](C3(N)CC3)C2)c(F)c(N)c2c(=O)c(C(=O)O)cn([C@@H]3C[C@@H]3F)c12 [trans, 5-amino-7-[4-(R)-(1-aminocyclopropyl)-3-(R)-fluoro-1-pyrrolidinyl]-6-fluoro-1-(2-(S)-fluoro-1-(R)-cyclopropyl]-1,4-dihydro-8-methyl-4-oxoquinoline-3-carboxylic acid, reference compound]	2/2*														Number of death ([1]; 50 mg/kg intravenously, five per group): 0/5; Number of death ([1]; 100 mg/kg intravenously, test stopped at second death): 2/2*
